{"source": "patent US20140378374A1", "about": "“METHODS OF TREATMENT” (GlaxoSmithKline Intellectual Property (No.2) Limited, priority 2013, published 2014)", "tested_on": "patients with T2D and RI", "type": "in vivo, human", "settings": "for Model-adjusted change from baseline A1C, LS mean (SE): ANCOVA", "protocol": "Therapies for type 2 diabetes mellitus (T2DM) with renal impairment (RI) are limited and may require dose adjustment. This 52-week randomized, double blind, active controlled, Phase III parallel group study examined efficacy/safety of QW Albi injections (30 mg uptitrated to 50 mg if needed) vs daily Sita in patients with T2D and RI (eGFR≧15 and <90 mL/min/1.73 m^2) and A1C 7-10% on lifestyle (11% of subjects) or metformin (Met), thiazoldinedone (TZD), sulfonylureas (SU), or any combination (89% of patients). […] Primary endpoint was A1C change at week 26 for Albi vs Sita (noninferiority with subsequent superiority analysis). Eligible subjects were men or non pregnant, nonlactating women, 18 years of age or older, with a historical diagnosis of T2DM who were experiencing inadequate glycemic control on their current regimen of diet and exercise or their antidiabetic therapy of metformin, TZD, SU, or any combination of these OAD medications.", "key": {"[1]": {"settings": "Week 26, Moderate RI (eGFR 30-59)"}, "[2]": {"settings": "Week 26, Severe RI (eGFR 15-29)"}}, "note": "Like-named read-outs stand apart in the source and are kept apart here."}
{"substance": "Albiglutide: recombinant fusion protein of 2 copies of modified human GLP-1 (fragment 7-36(A8G)) genetically fused in series to recombinant human serum albumin", "values": [{"measurement": "Week 26 A1C, mean", "setting": "Any RI (eGFR 15-89)", "result": 7.27, "unit": "%"}, {"measurement": "Week 26 A1C, mean", "setting": "Mild RI (eGFR 60-89 mL/min/1.73 m2)", "result": 7.23, "unit": "%"}, {"measurement": "Week 26 A1C, mean", "setting": "Moderate RI (eGFR 30-59)", "result": 7.37, "unit": "%"}, {"measurement": "A1C change at week 26, Albi vs Sita, superiority analysis", "setting": "P=0.0003", "result": "superior"}, {"measurement": "Week 26 A1C, mean", "setting": "Severe RI (eGFR 15-29)", "result": 6.97, "unit": "%"}, {"measurement": "A1C<7% achieved, patients", "setting": "Week 26", "result": 42.6, "unit": "%"}, {"measurement": "FPG change", "setting": "Week 26", "result": -25.6, "unit": "mg/dL"}, {"measurement": "weight change", "setting": "Week 26", "result": -0.8, "unit": "kg"}, {"measurement": "Model-adjusted change from baseline A1C, LS mean (SE)", "setting": "Week 26, Any RI (eGFR 15-89)", "result": "−0.83", "unit": "%"}, {"measurement": "Model-adjusted change from baseline A1C, LS mean (SE)", "setting": "Week 26, Mild RI (eGFR 60-89)", "result": "−0.80", "unit": "%"}, {"measurement": "Model-adjusted change from baseline A1C, LS mean (SE)", "setting": "[1]", "result": "−0.83", "unit": "%"}, {"measurement": "Model-adjusted change from baseline A1C, LS mean (SE)", "setting": "[2]", "result": "−1.08", "unit": "%"}, {"measurement": "Change from baseline A1C, mean (SD)", "setting": "Week 26, Any RI (eGFR 15-89)", "result": "−0.82", "unit": "%"}, {"measurement": "Difference of LS means from sitagliptin (95% CI), A1C", "setting": "Week 26, Any RI (eGFR 15-89)", "result": 0.32, "unit": "%"}, {"measurement": "Difference of LS means from sitagliptin (95% CI), A1C", "setting": "Week 26, Any RI (eGFR 15-89), listed as Albi", "result": "−0.32", "unit": "%"}, {"measurement": "Change from baseline A1C, mean (SD)", "setting": "Week 26, Mild RI (eGFR 60-89)", "result": "−0.72", "unit": "%"}, {"measurement": "Difference of LS means from sitagliptin (95% CI), A1C", "setting": "Week 26, Mild RI (eGFR 60-89)", "result": "−0.13", "unit": "%"}, {"measurement": "Change from baseline A1C, mean (SD)", "setting": "[1]", "result": "−0.88", "unit": "%"}, {"measurement": "Difference of LS means from sitagliptin (95% CI), A1C", "setting": "[1]", "result": "−0.53", "unit": "%"}, {"measurement": "Change from baseline A1C, mean (SD)", "setting": "[2]", "result": "−1.08", "unit": "%"}, {"measurement": "Difference of LS means from sitagliptin (95% CI), A1C", "setting": "[2]", "result": "−0.47", "unit": "%"}, {"measurement": "Adverse Event rate: diarrhea", "setting": "in vivo", "result": 8.8, "unit": "%"}, {"measurement": "Adverse Event rate: nausea", "setting": "in vivo", "result": 4.8, "unit": "%"}, {"measurement": "Adverse Event rate: vomiting", "setting": "in vivo", "result": 1.6, "unit": "%"}, {"measurement": "Anti-Albi antibody rate", "setting": "in vivo", "result": 2.8, "unit": "%"}, {"measurement": "Anti-Albi antibody, neutralizing", "setting": "in vivo", "result": 0, "unit": "%"}, {"measurement": "Hypoglycemia rate", "setting": "in vivo", "result": 20.5, "unit": "%"}, {"measurement": "Hypoglycemia, severe (number)", "setting": "in vivo", "result": 0}, {"measurement": "Injection site reaction rate", "setting": "in vivo", "result": 6.8, "unit": "%"}, {"measurement": "On-therapy adverse event: Constipation", "setting": "in vivo", "result": "15 (6.0) n (%)"}, {"measurement": "On-therapy adverse event: Diarrhea", "setting": "in vivo", "result": "22 (8.8) n (%)"}, {"measurement": "On-therapy adverse event: Hypertension", "setting": "in vivo", "result": "10 (4.0) n (%)"}, {"measurement": "On-therapy adverse event: Nasopharyngitis", "setting": "in vivo", "result": "13 (5.2) n (%)"}, {"measurement": "On-therapy adverse event: Upper respiratory tract infection", "setting": "in vivo", "result": "9 (3.6) n (%)"}, {"measurement": "On-therapy adverse event: Urinary tract infection", "setting": "in vivo", "result": "8 (3.2) n (%)"}]}
